Data: article PMC11435058, “Synthesis of New Thiazole-Privileged Chalcones as Tubulin Polymerization Inhibitors with Potential Anticancer Activities” (Pharmaceuticals, 2024)

Legend:
Assay in all cases: NCI-60 anticancer screen (SRB; single dose and five doses)
HOP-62 = details: Homo sapiens
OVCAR-8 = details: Homo sapiens
M14 = details: Homo sapiens
COLO 205 = details: Homo sapiens
LOX IMVI = details: Homo sapiens
MALME-3M = details: Homo sapiens
BT-549 = details: Homo sapiens
SF-295 = details: Homo sapiens
OVCAR-4 = details: Homo sapiens
NCI-H226 = details: Homo sapiens
TK-10 = details: Homo sapiens
HCT-15 = details: Homo sapiens
MCF7 = details: Homo sapiens
HCC-2998 = tested on: HCC-2998
MOLT-4 = details: Homo sapiens
SK-MEL-2 = details: Homo sapiens
RPMI-8226 = details: Homo sapiens
MDA-MB-468 = assay type: cell-based, human
Outline: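 Readout was sulforhodamine B staining, read spectrophotometrically as percent growth against untreated controls. This followed a 48 h exposure to one 10μM dose across roughly 60 human tumor lines of the NCI screen.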

UACC-257 = details: Homo sapiens
NCI-H23 = details: Homo sapiens
UACC-62 = details: Homo sapiens
786-0 = details: Homo sapiens
NCI-H322M = details: Homo sapiens
T-47D = details: Homo sapiens, T47D
U251 = details: Homo sapiens
[1] = 48 h, read-out: Growth Percentage

Cc1[nH]c(=S)sc1C(=O)/C=C/c1ccc([N+](=O)[O-])cc1 [2i, (E)-1-(4-Methyl-2-Thioxo-2,3-Dihydrothiazol-5-yl)-3-(4-Nitrophenyl)Prop-2-En-1-One]
GI50 (HOP-62; HOP-62): 6.43 µM
activity at 10 µM (HOP-62; HOP-62, 48 h, read-out: Growth Percentage): 21.6%
CC50 (HOP-62; HOP-62, read-out: LC50): 67.7 µM
IC (TGI) (HOP-62; HOP-62, read-out: TGI): 23.2 µM
GI50 (OVCAR-8; OVCAR-8): 7.73 µM
activity at 10 µM (OVCAR-8; OVCAR-8, 48 h, read-out: Growth Percentage): 7.06%
CC50 (OVCAR-8; OVCAR-8, read-out: LC50): 65.2 µM
IC (TGI) (OVCAR-8; OVCAR-8, read-out: TGI): 23.9 µM
GI50 (M14; M14): 12.2 µM
activity at 10 µM (M14; M14, 48 h, read-out: Growth Percentage): 69.5%
IC (TGI) (M14; M14, read-out: TGI): 28.4 µM
GI50 (COLO 205; COLO 205): 15.9 µM
activity at 10 µM (COLO 205; COLO 205, 48 h, read-out: Growth Percentage): 91.5%
CC50 (COLO 205; COLO 205, read-out: LC50): > 100 µM
IC (TGI) (COLO 205; COLO 205, read-out: TGI): 41.1 µM
GI50 (LOX IMVI): 1.85 µM
activity at 10 µM (LOX IMVI; [1]): -86.2%
CC50 (LOX IMVI; read-out: LC50): 8.91 µM
IC (TGI) (LOX IMVI; read-out: TGI): 4.06 µM
GI50 (MALME-3M): 13.7 µM
activity at 10 µM (MALME-3M; [1]): 75.2%
CC50 (MALME-3M; read-out: LC50): 70.8 µM
IC (TGI) (MALME-3M; read-out: TGI): 31.1 µM
GI50 (BT-549; BT-549): 5.04 µM
activity at 10 µM (BT-549; BT-549, 48 h, read-out: Growth Percentage): 20.1%
IC (TGI) (BT-549; BT-549, read-out: TGI): 19.3 µM
GI50 (SF-295; SF-295): 16.1 µM
activity at 10 µM (SF-295; SF-295, 48 h, read-out: Growth Percentage): 86.1%
CC50 (SF-295; SF-295, read-out: LC50): 56.5 µM
IC (TGI) (SF-295; SF-295, read-out: TGI): 30.2 µM
GI50 (OVCAR-4; OVCAR-4): 14.9 µM
activity at 10 µM (OVCAR-4; OVCAR-4, 48 h, read-out: Growth Percentage): 49.2%
CC50 (OVCAR-4; OVCAR-4, read-out: LC50): 53.8 µM
IC (TGI) (OVCAR-4; OVCAR-4, read-out: TGI): 28.3 µM
GI50 (NCI-H226; NCI-H226): 15.6 µM
activity at 10 µM (NCI-H226; NCI-H226, 48 h, read-out: Growth Percentage): 91.4%
CC50 (NCI-H226; NCI-H226, read-out: LC50): > 100 µM
IC (TGI) (NCI-H226; NCI-H226, read-out: TGI): 42.1 µM
GI50 (TK-10; TK-10): 12.4 µM
activity at 10 µM (TK-10; TK-10, 48 h, read-out: Growth Percentage): 12.9%
CC50 (TK-10; TK-10, read-out: LC50): 51.3 µM
IC (TGI) (TK-10; TK-10, read-out: TGI): 25.3 µM
GI50 (HCT-15; HCT-15): 2.46 µM
activity at 10 µM (HCT-15; HCT-15, 48 h, read-out: Growth Percentage): -62.1%
CC50 (HCT-15; HCT-15, read-out: LC50): 33.7 µM
IC (TGI) (HCT-15; HCT-15, read-out: TGI): 7.86 µM
GI50 (MCF7; MCF7): 2.67 µM
activity at 10 µM (MCF7; MCF7, 48 h, read-out: Growth Percentage): 5.51%
CC50 (MCF7; MCF7, read-out: LC50): 51.3 µM
IC (TGI) (MCF7; MCF7, read-out: TGI): 11.7 µM
GI50 (HCC-2998; Homo sapiens, HCC 2998): 9.37 µM
activity at 10 µM (HCC-2998; Homo sapiens, HCC 2998, 48 h, read-out: Growth Percentage): -11.9%
CC50 (HCC-2998; Homo sapiens, HCC 2998, read-out: LC50): 47 µM
TGI (HCC-2998; five-dose, Colon Cancer HCC-2998): 21.5 µM
GI50 (MOLT-4; MOLT-4): 3.79 µM
activity at 10 µM (MOLT-4; MOLT-4, 48 h, read-out: Growth Percentage): 14.2%
CC50 (MOLT-4; MOLT-4, read-out: LC50): > 100 µM
IC (TGI) (MOLT-4; MOLT-4, read-out: TGI): > 100 µM
GI50 (SK-MEL-2; SK-MEL-2): 13.6 µM
activity at 10 µM (SK-MEL-2; SK-MEL-2, 48 h, read-out: Growth Percentage): 49.5%
CC50 (SK-MEL-2; SK-MEL-2, read-out: LC50): 62 µM
IC (TGI) (SK-MEL-2; SK-MEL-2, read-out: TGI): 29 µM
GI50 (RPMI-8226; RPMI-8226): 3.55 µM
activity at 10 µM (RPMI-8226; RPMI-8226, 48 h, read-out: Growth Percentage): -7.9%
CC50 (RPMI-8226; RPMI-8226, read-out: LC50): > 100 µM
IC (TGI) (RPMI-8226; RPMI-8226, read-out: TGI): > 100 µM
activity at 10 µM (MDA-MB-468; Homo sapiens, 48 h, MDA-MB-468, dose of 10 μM, read-out: Growth Percentage): -18.9%
GI50 (MDA-MB-468; Homo sapiens, MDA-MB-468, Breast Cancer, five dose): 2.2 µM
CC50 (MDA-MB-468; Homo sapiens, MDA-MB-468, Breast Cancer, five dose, read-out: LC50 (the source's name)): 31.4 µM
TGI (MDA-MB-468; MDA-MB-468, Breast Cancer, five dose): 8 µM
GI50 (UACC-257; UACC-257): 15.1 µM
activity at 10 µM (UACC-257; UACC-257, 48 h, read-out: Growth Percentage): 63.3%
CC50 (UACC-257; UACC-257, read-out: LC50): 61.4 µM
IC (TGI) (UACC-257; UACC-257, read-out: TGI): 30.4 µM
GI50 (NCI-H23; NCI-H23): 12.2 µM
activity at 10 µM (NCI-H23; NCI-H23, 48 h, read-out: Growth Percentage): 49.2%
CC50 (NCI-H23; NCI-H23, read-out: LC50): 52.6 µM
IC (TGI) (NCI-H23; NCI-H23, read-out: TGI): 25.3 µM
GI50 (UACC-62; UACC-62): 10.5 µM
activity at 10 µM (UACC-62; UACC-62, 48 h, read-out: Growth Percentage): 47.5%
IC (TGI) (UACC-62; UACC-62, read-out: TGI): 22.4 µM
GI50 (786-0; 786-0): 3.99 µM
activity at 10 µM (786-0; 786-0, 48 h, read-out: Growth Percentage): 25.6%
CC50 (786-0; 786-0, read-out: LC50): 54 µM
IC (TGI) (786-0; 786-0, read-out: TGI): 17.6 µM
GI50 (NCI-H322M): 11 µM
activity at 10 µM (NCI-H322M; [1]): 50.7%
CC50 (NCI-H322M; read-out: LC50): 54.6 µM
IC (TGI) (NCI-H322M; read-out: TGI): 24.5 µM
GI50 (T-47D): 4.96 µM
activity at 10 µM (T-47D; [1]): 44.3%
CC50 (T-47D; read-out: LC50): > 100 µM
IC (TGI) (T-47D; read-out: TGI): 25.7 µM
GI50 (U251; U-251): 4.1 µM
activity at 10 µM (U251; U-251, 48 h, read-out: Growth Percentage): 13.7%
CC50 (U251; U-251, read-out: LC50): 53 µM
IC (TGI) (U251; U-251, read-out: TGI): 17 µM
